From paper PMC12698583, “Efficacy of sulfonamides targeting malic enzyme in an animal model of Chagas disease” (Frontiers in Pharmacology, 2025)
“Also recorded” adds a separate entry of the source. Where two headings read alike, the source gives them in different places.

Experiments:
[1] = tested on: T. cruzi Dm28c strain intracellular form infecting H9c2 rat cardiomyoblasts; assay: T. cruzi intracellular image-based assay; format: cell-based, Trypanosoma cruzi
Protocol: (§1) Tested compounds were dissolved and serially diluted in dimethylsulfoxide (DMSO) using a half-log dilution across six concentrations. Intermediate plates were prepared by diluting compounds 1:25 in DMEM (Dulbecco’s Modified Eagle Medium) with 10% FBS (Fetal Bovine Serum). The assay was based on [Fredo Naciuk et al. (2020)], with minor modifications. Briefly, T. cruzi trypomastigotes (from LLC-MK2 cultures, 6 days post-infection) were used to infect H9c2 rat cardiomyoblasts overnight (16–18 h) at MOI 1. After washing with PBS, cells were trypsinized and resuspended in DMEM at 2.3 × 10^4 cells/mL. Then, 65 μL per well was plated in 384-well plates and incubated for 24 h (37 °C, 5% CO2, >95% humidity). Subsequently, 7.5 μL of compound solution was added (final [DMSO] 0.4%). After 72 h of treatment, cells were fixed with 4% PFA and stained with Hoechst 33342 (4 μg/mL). Six images per well were acquired using the Operetta system (PerkinElmer) and analyzed with Columbus software to quantify infected cells (≥3 cytoplasmic parasite spots).

[2] = target: T1, T. cruzi malic enzyme (TcME) (Trypanosoma cruzi, UniProt Q4DJ68); assay: Malic enzyme (TcME) inhibition assay, diaphorase/resazurin coupled; format: biochemical
Protocol: The TcME inhibition assay was performed as previously described, with minor modifications ([Mercaldi et al., 2021]). Briefly, a coupled assay with the enzyme diaphorase and resorufin fluorescence (Ex 545 nm/Em 600 nm) was recorded every 30 s for 6 min in a CLARIOstar plate reader (BMG LabTech). The final concentrations of reagents in the assay were: 0.02 mM NADP+, 0.4 mM L-aspartate, 0.45 nM TcMEc, 1 U/mL diaphorase, and 10 μM resazurin, all in 50 mM Tris-HCl buffer containing 50 mM NaCl and 2 mM MnCl2 at pH 7.5. The reaction was initiated by adding 1.32 mM L-malate.

[3] = Host cell cytotoxicity in the image-based assay (total host cells); details: rat, H9c2 rat cardiomyoblasts (infected with T. cruzi), 72 h treatment
Protocol: as §1

[4] = Chemical stability at physiological pHs; format: physicochemical; details: basic pH, 37 °C, 24 h
Protocol: These conditions simulate stomach acidity, plasma neutrality, and intestinal basicity.
For the chemical stability experiment, the compounds were evaluated under the same conditions with an additional incubation at 37 °C for a period of 24 h. The analysis was performed using an analytical method developed and validated by high-performance liquid chromatography with UV detection (HPLC-UV). Compounds were quantified in different pH media by comparing the areas where the substances were completely soluble with those in the reaction media. The experiments were performed in a triplicate.
These conditions simulate stomach acidity, plasma neutrality, and intestinal basicity. […] For the chemical stability experiment, the compounds were evaluated under the same conditions with an additional incubation at 37°C for a period of 24 hours. The analysis was performed using an analytical method developed and validated by high-performance liquid chromatography with UV detection (HPLC-UV). Compounds were quantified in the different pH media by comparing the areas where the substances were completely soluble with those in the reaction media. The experiments were performed in triplicate.

[5] = target: T1, T. cruzi malic enzyme (TcME); parameters: method as in Mercaldi et al. (2021); details: TcME (cytosolic isoform); ref Mercaldi et al. (2021); cited from earlier work
[6] = tested on: T. cruzi Dm28c strain intracellular form infecting H9c2 rat cardiomyoblasts; details: cited from earlier work
[7] = tested on: H9c2 rat cardiomyoblasts; parameters: method as in Mercaldi et al. (2021) and Peña et al. (2015); details: total host cells; ref Mercaldi et al. (2021) and Peña et al. (2015); cited from earlier work

T1 sequence (Q4DJ68 entry or part of it): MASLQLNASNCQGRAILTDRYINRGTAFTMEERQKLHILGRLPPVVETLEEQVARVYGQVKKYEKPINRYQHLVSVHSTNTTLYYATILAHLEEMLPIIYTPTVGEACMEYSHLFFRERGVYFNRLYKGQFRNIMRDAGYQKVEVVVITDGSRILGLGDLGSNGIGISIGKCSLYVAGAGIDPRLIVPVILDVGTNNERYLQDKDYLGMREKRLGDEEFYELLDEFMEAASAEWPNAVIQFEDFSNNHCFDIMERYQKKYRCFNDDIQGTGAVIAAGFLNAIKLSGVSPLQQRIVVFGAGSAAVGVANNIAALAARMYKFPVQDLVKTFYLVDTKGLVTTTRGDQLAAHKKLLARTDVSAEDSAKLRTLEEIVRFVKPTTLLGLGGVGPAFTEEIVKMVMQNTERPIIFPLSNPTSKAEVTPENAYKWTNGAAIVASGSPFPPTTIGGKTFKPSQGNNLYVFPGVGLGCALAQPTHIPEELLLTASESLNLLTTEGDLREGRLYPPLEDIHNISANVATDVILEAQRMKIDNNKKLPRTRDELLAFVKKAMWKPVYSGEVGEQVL

Row | activity against TcME (in words) [2] | SMILES | activity against T. cruzi intracellular forms (in words) [1] | further results
1 | not active | CC(C)Oc1ccc(NS(=O)(=O)c2ccc(NC(=O)c3cnccn3)cc2)cc1 [AC-R010, N-(4-(N-(4-isopropoxyphenyl)sulfamoyl)phenyl)pyrazine-2-carboxamide] | Inactive; also recorded: didn´t affect the parasite | –
2 | not active | CC(C)Oc1ccc(NS(=O)(=O)c2cccc(N)c2)cc1 [compound 10, 3-amino-N-(4-isopropoxyphenyl)benzenesulfonamide] | not active | –
3 | not active | COc1ccc(NS(=O)(=O)c2cccc([N+](=O)[O-])c2)cc1 [compound 5, N-(4-methoxyphenyl)-3-nitrobenzenesulfonamide] | not active | –
4 | not active | CC(C)Oc1ccc(NS(=O)(=O)c2cccc([N+](=O)[O-])c2)cc1 [compound 6, N-(4-isopropoxyphenyl)-3-nitrobenzenesulfonamide] | not active | –
5 | not active | COc1ccc(NS(=O)(=O)c2ccc(NC(=O)c3cc(F)cc(F)c3)cc2)cc1 [AC-R001, 3,5-difluoro-N-(4-(N-(4-methoxyphenyl)sulfamoyl)phenyl)benzamide] | Inactive; also recorded: didn´t affect the parasite | –
6 | not active | COc1ccc(NS(=O)(=O)c2ccc(NC(=O)c3cnccn3)cc2)cc1 [AC-R009, N-(4-(N-(4-methoxyphenyl)sulfamoyl)phenyl)pyrazine-2-carboxamide] | Inactive; also recorded: didn´t affect the parasite | –
7 | – | CC(C)Oc1ccc(NS(=O)(=O)c2cccc(NC(=O)c3cc(F)cc(F)c3)c2)cc1 [AC-M109, 3,5-difluoro-N-(3-(N-(4-isopropoxyphenyl)sulfamoyl)phenyl)benzamide] | – | CC50 at 72 h [3]: 12 µM; SI ([1]; Selectivity index): 318; IC50 ([2]; concentration necessary to inhibit 50% of T. cruzi Malic enzyme enzymatic activity): 0.86 µM; Chemical stability [4]: ≤ 40%
8 | – | COc1ccc(NS(=O)(=O)c2cccc(NC(=O)c3cc(F)cc(F)c3)c2)cc1 [TCMDC-143108] | – | IC50 [5]: 0.08 µM; SI ([6]; Selectivity index, ref Mercaldi et al. (2021) and Peña et al. (2015)): > 84; EC50 ([6]; host cells infected by T. cruzi amastigotes, ref Peña et al. (2015)): 0.5 µM; CC50 [7]: > 42 µM
9 | not active | COc1ccc(NS(=O)(=O)c2cccc(N)c2)cc1 [compound 9, 3-amino-N-(4-methoxyphenyl)benzenesulfonamide] | not active | –
